Assay results taken from PubChem BioAssay (NCI).
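Following 48 hours of exposure in 96-well plates, responses at five concentrations were used to interpolate endpoints linearly. GI50: concentration for 50% inhibition of growth. TGI: total growth inhibition.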

Assays:
Test in all cases: NCI-60 cell line screen, 48 h
[1] = test system: ACHN renal
[2] = test system: COLO 205 colon
[3] = test system: HCT-15 colon
[4] = test system: HT29 colon
[5] = test system: OVCAR-3 ovarian
[6] = test system: SF-295 CNS
[7] = test system: SN12C renal
[8] = test system: SNB-75 CNS
[9] = test system: SR leukemia
[10] = test system: U251 CNS

| Structure (SMILES) | GI50 [1] [µM] | TGI [1] [µM] | GI50 [2] [µM] | GI50 [3] [µM] | TGI [3] [µM] | GI50 [4] [µM] | GI50 [5] [µM] | GI50 [6] [µM] | TGI [6] [µM] | GI50 [7] [µM] | TGI [7] [µM] | GI50 [8] [µM] | TGI [8] [µM] | GI50 [9] [µM] | TGI [9] [µM] | GI50 [10] [µM] | TGI [10] [µM] | TGI [2] [µM] | TGI [4] [µM] | TGI [5] [µM] |
| --- | --- | --- | --- | --- | --- | --- | --- | --- | --- | --- | --- | --- | --- | --- | --- | --- | --- | --- | --- | --- |
| COC(=O)[C@H](C[C@H](Cc1ccccc1)NC(=O)c1csc([C@@H](C[C@H](C(C)C)N(C)C(=O)[C@@H](NC(=O)[C@H]2CCCCN2C)C(C)C)OC(C)=O)n1)NC(=O)OCc1ccccc1 | 0.00243 | > 9 | < 0.0009 | 0.00401 | > 9 | < 0.0009 | < 0.0009 | 0.00128 | > 9 | < 0.0009 | > 9 | < 0.0009 | > 9 | < 0.0009 | > 4.29 | < 0.0009 | > 9 | – | – | – |
| COc1ccc(-c2n/c(=C\c3c(O)[nH]c4ccc(OC)cc34)cc3c2=Nc2ccccc2-3)cc1 | 26.7 | > 100 | 10.7 | – | – | – | – | 3.9 | 24.1 | 4 | > 100 | 1.55 | 2.99 | – | – | – | – | 56.8 | – | – |
| COc1ccc2nc(-c3cccs3)cc(C(O)CN3CCSCC3)c2c1 (stereo unspecified) | – | 45.9 | – | – | 57.8 | – | – | – | > 100 | – | 87.7 | – | 78.7 | – | – | – | 50.2 | 53.7 | 74 | > 100 |
| COc1cc(C(=O)C/C(CCCC(=O)Nc2ccccc2[N+](=O)[O-])=N/NC(=O)c2cc3ccccc3cc2O)ccc1O | – | 98.3 | – | – | > 74.3 | – | – | – | > 100 | – | > 100 | – | > 100 | – | – | – | > 100 | 63.2 | > 100 | > 100 |
| Oc1cccc2ccc(N/N=C/c3cc(CN4CCCCC4)c(O)c4ncccc34)nc12 | 0.0344 | 1.19 | 0.0651 | 0.0339 | 1.51 | 0.324 | 0.0858 | 0.0686 | 3.07 | 0.0931 | 12.9 | – | – | – | – | 0.0329 | 1.28 | 1.36 | 1.46 | 1.74 |
| CC1=C(Oc2ccccc2)C(CCC(=O)O)c2c(O)cc(Cl)c(O)c21 (stereo unspecified) | – | – | – | – | > 100 | – | – | – | > 100 | – | > 100 | – | – | – | > 100 | – | > 100 | > 100 | – | > 100 |
| C[C@@H]1C[C@H]2CC[C@H](O2)[C@H](C)C(=O)O[C@@H](C)C[C@@H]2CC[C@@H](O2)[C@@H](C)C(=O)O[C@H](C)C[C@H]2CC[C@H](O2)[C@H](C)C(=O)O[C@@H](C)C[C@@H]2CC[C@@H](O2)[C@@H](C)C(=O)O1 | – | 2.45 | – | – | > 100 | – | – | – | 0.659 | – | 18.9 | – | – | – | > 42.8 | – | > 100 | 0.33 | 15.7 | > 40.1 |
| CSc1ccc(C2OC(=O)c3ccccc32)c2ccccc12 (stereo unspecified) | – | > 100 | – | – | > 100 | – | – | – | > 100 | – | > 100 | – | 61.2 | – | > 100 | – | > 100 | > 100 | > 100 | – |
| CCN(CC)c1ccc(C(=O)c2ccccc2C(=O)O)c(O)c1 | – | > 100 | – | – | > 100 | – | – | – | > 100 | – | > 100 | – | > 100 | – | – | – | > 100 | > 100 | > 100 | > 100 |
| O=C1CC(c2ccc(O)cc2)C2(O1)C(=O)OC(C(O)CO)C2O (stereo unspecified) | – | > 100 | – | – | > 100 | – | – | – | > 100 | – | > 100 | – | > 100 | – | – | – | > 100 | > 100 | > 100 | > 100 |
| CN(C)CCNc1c2c(c(NCCN(C)C)c3[nH]ccc13)C(=O)c1ccccc1C2=O | 0.476 | 5.56 | 4.32 | 0.168 | 3.55 | 0.465 | 0.639 | 0.693 | 3.25 | 0.519 | 2.61 | 2.75 | 30.6 | – | – | 0.507 | 15.9 | > 100 | – | 6.59 |
| C#CCOCn1cnc2c(Cl)ncnc21 | – | > 100 | – | – | – | – | – | – | > 100 | – | > 100 | – | > 100 | – | > 100 | – | > 100 | > 100 | > 100 | > 100 |
| Cc1ccc(N=Nc2c(O)c(C(=O)O)cc3ccccc23)cc1C | – | > 100 | – | – | > 100 | – | – | – | > 100 | – | – | – | > 100 | – | > 100 | – | > 100 | > 100 | > 100 | > 100 |
| Cc1ccc(N=Cc2ccc3c(c2)OCO3)cc1C | – | > 100 | – | – | > 100 | – | – | – | > 100 | – | > 100 | – | > 100 | – | > 100 | – | – | > 100 | > 100 | > 100 |
| CC(CCC(=O)O)[C@H]1CCC2[C@@H]3CC[C@@H]4CC(O)CC[C@]4(C)C3CC[C@@]21C (stereo partly specified) | 29.3 | > 100 | 23.7 | 46.4 | > 100 | 46.1 | – | – | – | > 100 | > 100 | 66.1 | > 100 | 23.4 | 85.4 | 40.2 | > 100 | 53.1 | > 100 | – |
| C1C[OH+]CC[OH+]CCNCC[OH+]CC[OH+]CCN1.N.[Cl-].[Pt+4] | 4.33 | 44 | 36.7 | 20.2 | 71.6 | 22.1 | 4.12 | 2.96 | 19.7 | 18.7 | > 100 | 3.59 | 20.2 | – | – | 7.19 | > 100 | > 100 | > 100 | 19.4 |
| Nc1ccn(CCNCCn2cnc3nc(N)[nH]c(=O)c32)c(=O)n1 | – | > 100 | – | – | > 100 | – | – | – | > 100 | – | > 100 | – | – | – | > 100 | – | > 100 | > 100 | > 100 | > 100 |
| Cc1[nH]ccc2c1[nH]c1cc(=O)ccc12 | – | > 100 | – | – | > 100 | – | – | – | > 100 | – | > 100 | – | > 100 | – | – | – | > 100 | > 100 | > 100 | > 100 |
| O=C(O)/C=C\C(=O)N1C/C(=C\c2ccccc2Cl)C(=O)/C(=C/c2ccccc2Cl)C1 | – | – | 2.27 | 2.3 | 6.44 | – | 2.4 | 4.4 | 16.5 | 2.93 | 9.31 | 3.8 | 14 | 0.632 | 13 | 0.472 | 1.88 | 4.33 | – | 5.51 |
